Assay results taken from ChEMBL document CHEMBL5649169 (ChemMedChem, 2018).

What was measured:
[1] = target: MAP/microtubule affinity-regulating kinase 4 (Homo sapiens) (UniProt Q96L34)
[2] = target: Replication factor C subunit 1 (Homo sapiens) (UniProt P35251)
[3] = target: STE20-related kinase adapter protein alpha (Homo sapiens) (UniProt Q7RTN6)
Radixin (Homo sapiens) = Radixin (Homo sapiens) (UniProt P35241)
[4] = target: Small ribosomal subunit protein uS2m (Homo sapiens) (UniProt Q9Y399)
Homo sapiens [5] = organism: Homo sapiens
[6] = target: Kinesin-like protein KIF2C (Homo sapiens) (UniProt Q99661)
[7] = target: ATP-dependent RNA helicase A (Homo sapiens) (UniProt Q08211)
[8] = target: General transcription factor IIF subunit 2 (Homo sapiens) (UniProt P13984)
General transcription factor IIF subunit 2 (Homo sapiens), sequence (P13984 whole entry): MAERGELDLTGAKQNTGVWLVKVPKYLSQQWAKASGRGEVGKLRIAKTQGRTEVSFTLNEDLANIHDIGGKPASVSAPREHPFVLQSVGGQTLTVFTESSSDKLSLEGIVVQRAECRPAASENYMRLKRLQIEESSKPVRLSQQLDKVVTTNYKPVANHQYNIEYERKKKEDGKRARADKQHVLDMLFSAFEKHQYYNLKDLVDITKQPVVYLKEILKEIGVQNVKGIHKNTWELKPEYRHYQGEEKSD

[9] = target: Histone H1.3 (Homo sapiens) (UniProt P16402)
[10] = target: Retinoblastoma-binding protein 5 (Homo sapiens) (UniProt Q15291)
Retinoblastoma-binding protein 5 (Homo sapiens), sequence (Q15291 whole entry): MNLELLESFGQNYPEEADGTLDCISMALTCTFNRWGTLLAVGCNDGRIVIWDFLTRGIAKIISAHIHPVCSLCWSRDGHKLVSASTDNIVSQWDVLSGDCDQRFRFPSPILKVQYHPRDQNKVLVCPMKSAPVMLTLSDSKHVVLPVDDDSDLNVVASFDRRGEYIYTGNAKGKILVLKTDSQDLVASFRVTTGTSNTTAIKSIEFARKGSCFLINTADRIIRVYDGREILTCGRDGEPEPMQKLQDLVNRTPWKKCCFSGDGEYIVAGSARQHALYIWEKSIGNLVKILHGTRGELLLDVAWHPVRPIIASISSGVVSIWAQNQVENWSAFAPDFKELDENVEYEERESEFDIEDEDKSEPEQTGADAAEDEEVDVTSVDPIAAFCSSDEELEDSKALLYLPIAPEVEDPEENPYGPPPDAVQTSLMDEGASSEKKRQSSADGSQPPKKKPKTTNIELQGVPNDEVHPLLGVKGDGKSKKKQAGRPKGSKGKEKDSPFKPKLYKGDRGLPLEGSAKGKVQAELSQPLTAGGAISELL

[11] = target: E3 ubiquitin-protein ligase RNF5 (Homo sapiens) (UniProt Q99942)
E3 ubiquitin-protein ligase RNF5 (Homo sapiens), sequence (Q99942 whole entry): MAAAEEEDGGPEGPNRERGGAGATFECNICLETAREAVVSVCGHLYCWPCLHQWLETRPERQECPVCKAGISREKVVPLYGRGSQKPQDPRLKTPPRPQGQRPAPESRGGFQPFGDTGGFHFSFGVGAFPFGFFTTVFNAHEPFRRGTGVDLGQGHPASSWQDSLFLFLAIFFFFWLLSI

[12] = target: Bone morphogenetic protein receptor type-1A (Homo sapiens) (UniProt P36894)
Bone morphogenetic protein receptor type-1A (Homo sapiens), sequence (P36894 whole entry): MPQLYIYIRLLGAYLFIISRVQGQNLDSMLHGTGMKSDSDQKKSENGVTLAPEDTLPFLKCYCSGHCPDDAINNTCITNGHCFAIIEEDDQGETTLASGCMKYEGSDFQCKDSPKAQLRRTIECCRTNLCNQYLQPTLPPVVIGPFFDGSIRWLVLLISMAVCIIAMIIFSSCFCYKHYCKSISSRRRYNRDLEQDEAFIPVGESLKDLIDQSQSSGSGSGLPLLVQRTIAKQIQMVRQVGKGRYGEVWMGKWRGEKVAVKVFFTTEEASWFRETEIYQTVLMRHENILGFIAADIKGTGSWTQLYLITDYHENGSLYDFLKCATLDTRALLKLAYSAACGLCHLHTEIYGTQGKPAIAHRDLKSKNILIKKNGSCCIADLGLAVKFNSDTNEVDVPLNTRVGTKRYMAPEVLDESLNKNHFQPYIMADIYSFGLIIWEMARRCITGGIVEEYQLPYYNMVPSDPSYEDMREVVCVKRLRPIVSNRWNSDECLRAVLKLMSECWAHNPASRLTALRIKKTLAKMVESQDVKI

[13] = target: Tubulin alpha-4A chain (Homo sapiens) (UniProt P68366)
[14] = target: BAG family molecular chaperone regulator 2 (Homo sapiens) (UniProt O95816)
BAG family molecular chaperone regulator 2 (Homo sapiens), sequence (O95816 whole entry): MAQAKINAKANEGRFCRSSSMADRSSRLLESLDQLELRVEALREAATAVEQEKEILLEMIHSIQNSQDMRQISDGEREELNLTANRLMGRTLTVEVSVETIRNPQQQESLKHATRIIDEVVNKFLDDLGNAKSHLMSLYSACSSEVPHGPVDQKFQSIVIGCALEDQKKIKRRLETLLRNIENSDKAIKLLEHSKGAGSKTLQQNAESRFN

[15] = target: Echinoderm microtubule-associated protein-like 4 (Homo sapiens) (UniProt Q9HC35)
[16] = target: Forkhead box protein K1 (Homo sapiens) (UniProt P85037)
[17] = target: Large ribosomal subunit protein eL19 (Homo sapiens) (UniProt P84098)
[18] = target: OCIA domain-containing protein 1 (Homo sapiens) (UniProt Q9NX40)
OCIA domain-containing protein 1 (Homo sapiens), sequence (Q9NX40 whole entry, the tested form may be a part): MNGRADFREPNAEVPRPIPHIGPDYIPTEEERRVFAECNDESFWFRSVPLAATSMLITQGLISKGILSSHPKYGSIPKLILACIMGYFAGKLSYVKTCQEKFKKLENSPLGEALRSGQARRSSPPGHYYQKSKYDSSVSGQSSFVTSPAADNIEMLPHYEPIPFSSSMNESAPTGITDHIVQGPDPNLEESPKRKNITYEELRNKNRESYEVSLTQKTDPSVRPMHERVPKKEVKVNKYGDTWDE

[19] = target: Transcriptional repressor CTCF (Homo sapiens) (UniProt P49711)
Tektin-1 (Homo sapiens) = Tektin-1 (Homo sapiens) (UniProt Q969V4)
[20] = target: Programmed cell death protein 10 (Homo sapiens) (UniProt Q9BUL8)
Programmed cell death protein 10 (Homo sapiens), sequence (Q9BUL8 whole entry): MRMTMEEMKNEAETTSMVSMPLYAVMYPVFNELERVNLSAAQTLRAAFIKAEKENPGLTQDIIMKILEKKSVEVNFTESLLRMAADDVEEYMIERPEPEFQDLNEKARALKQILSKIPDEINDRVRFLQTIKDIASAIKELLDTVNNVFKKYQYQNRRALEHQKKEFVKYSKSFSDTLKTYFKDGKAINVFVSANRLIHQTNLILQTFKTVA

[21] = target: Serine/threonine-protein kinase 26 (Homo sapiens) (UniProt Q9P289)
[22] = target: Dolichyl-diphosphooligosaccharide--protein glycosyltransferase 48 kDa subunit (Homo sapiens) (UniProt P39656)
[23] = target: RNA polymerase-associated protein CTR9 homolog (Homo sapiens) (UniProt Q6PD62)
[24] = target: Arfaptin-2 (Homo sapiens) (UniProt P53365)
[25] = target: SPATS2-like protein (Homo sapiens) (UniProt Q9NUQ6)
[26] = target: Very long chain fatty acid elongase 5 (Homo sapiens) (UniProt Q9NYP7)
Cullin-4B (Homo sapiens) = Cullin-4B (Homo sapiens) (UniProt Q13620)
[27] = target: Conserved oligomeric Golgi complex subunit 2 (Homo sapiens) (UniProt Q14746)
Conserved oligomeric Golgi complex subunit 2 (Homo sapiens), sequence (Q14746 whole entry, one chain of several): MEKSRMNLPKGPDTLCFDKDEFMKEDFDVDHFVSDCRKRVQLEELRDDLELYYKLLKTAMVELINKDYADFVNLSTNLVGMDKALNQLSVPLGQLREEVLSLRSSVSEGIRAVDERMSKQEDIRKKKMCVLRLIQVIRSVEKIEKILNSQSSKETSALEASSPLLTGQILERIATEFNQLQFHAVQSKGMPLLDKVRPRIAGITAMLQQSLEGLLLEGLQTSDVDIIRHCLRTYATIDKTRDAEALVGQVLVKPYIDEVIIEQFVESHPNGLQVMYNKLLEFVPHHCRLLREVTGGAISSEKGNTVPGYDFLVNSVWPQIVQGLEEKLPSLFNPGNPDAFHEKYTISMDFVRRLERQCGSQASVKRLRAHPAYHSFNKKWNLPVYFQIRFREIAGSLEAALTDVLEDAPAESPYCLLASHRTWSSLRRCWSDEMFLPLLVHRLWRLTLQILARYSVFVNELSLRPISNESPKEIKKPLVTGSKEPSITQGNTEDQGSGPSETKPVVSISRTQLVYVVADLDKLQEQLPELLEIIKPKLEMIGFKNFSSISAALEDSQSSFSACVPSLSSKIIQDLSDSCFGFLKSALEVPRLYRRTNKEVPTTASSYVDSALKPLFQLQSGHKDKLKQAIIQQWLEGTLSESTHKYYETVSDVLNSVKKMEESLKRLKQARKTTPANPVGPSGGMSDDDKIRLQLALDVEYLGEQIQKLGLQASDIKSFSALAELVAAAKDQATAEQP

Homo sapiens [28] = organism: Homo sapiens; remark: listed apart in the source
[29] = target: Protein kinase C and casein kinase substrate in neurons protein 2 (Homo sapiens) (UniProt Q9UNF0)
[30] = target: NADH dehydrogenase [ubiquinone] flavoprotein 2, mitochondrial (Homo sapiens) (UniProt P19404)
[31] = target: Calcium-binding and coiled-coil domain-containing protein 2 (Homo sapiens) (UniProt Q13137)
[32] = target: Very-long-chain (3R)-3-hydroxyacyl-CoA dehydratase 2 (Homo sapiens) (UniProt Q6Y1H2)
[33] = target: Mismatch repair endonuclease PMS2 (Homo sapiens) (UniProt P54278)
Mismatch repair endonuclease PMS2 (Homo sapiens), sequence (P54278 whole entry): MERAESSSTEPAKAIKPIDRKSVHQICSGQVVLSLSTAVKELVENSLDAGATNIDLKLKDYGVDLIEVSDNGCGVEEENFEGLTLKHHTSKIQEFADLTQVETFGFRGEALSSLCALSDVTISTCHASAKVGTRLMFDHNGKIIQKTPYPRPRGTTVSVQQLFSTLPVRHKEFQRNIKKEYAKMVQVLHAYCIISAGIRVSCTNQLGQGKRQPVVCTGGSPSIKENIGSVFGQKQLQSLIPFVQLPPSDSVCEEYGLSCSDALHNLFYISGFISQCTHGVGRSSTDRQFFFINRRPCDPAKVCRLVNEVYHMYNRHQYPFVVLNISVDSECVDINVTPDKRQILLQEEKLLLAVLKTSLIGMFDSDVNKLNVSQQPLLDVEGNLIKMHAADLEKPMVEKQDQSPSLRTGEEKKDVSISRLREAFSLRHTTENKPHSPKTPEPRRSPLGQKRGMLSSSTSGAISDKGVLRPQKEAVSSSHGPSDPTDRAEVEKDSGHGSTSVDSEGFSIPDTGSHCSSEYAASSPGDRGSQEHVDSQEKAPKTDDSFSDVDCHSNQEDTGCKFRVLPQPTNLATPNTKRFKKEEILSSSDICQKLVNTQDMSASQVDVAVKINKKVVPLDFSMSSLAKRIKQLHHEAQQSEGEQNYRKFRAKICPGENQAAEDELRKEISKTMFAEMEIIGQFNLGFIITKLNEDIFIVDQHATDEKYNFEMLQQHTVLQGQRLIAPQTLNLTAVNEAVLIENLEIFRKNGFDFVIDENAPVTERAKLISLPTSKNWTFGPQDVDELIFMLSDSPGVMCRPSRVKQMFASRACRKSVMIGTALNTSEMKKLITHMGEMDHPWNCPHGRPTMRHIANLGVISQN

[34] = target: Protein prenyltransferase alpha subunit repeat-containing protein 1 (Homo sapiens) (UniProt Q7Z6K3)
Erlin-2 (Homo sapiens) = Erlin-2 (Homo sapiens) (UniProt O94905)
[35] = target: Hypoxia up-regulated protein 1 (Homo sapiens) (UniProt Q9Y4L1)
[36] = target: Eukaryotic translation initiation factor 3 subunit D (Homo sapiens) (UniProt O15371)
[37] = target: Palmitoyl-protein thioesterase 1 (Homo sapiens) (UniProt P50897)
[38] = target: F-actin-capping protein subunit alpha-1 (Homo sapiens) (UniProt P52907)
[39] = target: Calcyclin-binding protein (Homo sapiens) (UniProt Q9HB71)
Calcyclin-binding protein (Homo sapiens), sequence (Q9HB71 whole entry): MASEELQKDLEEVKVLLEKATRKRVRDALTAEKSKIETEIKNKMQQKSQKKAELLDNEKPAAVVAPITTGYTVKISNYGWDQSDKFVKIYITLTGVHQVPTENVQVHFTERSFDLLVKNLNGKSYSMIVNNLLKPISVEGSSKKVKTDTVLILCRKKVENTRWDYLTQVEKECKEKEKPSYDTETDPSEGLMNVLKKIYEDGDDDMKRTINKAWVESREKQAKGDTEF

[40] = target: C-1-tetrahydrofolate synthase, cytoplasmic (Homo sapiens) (UniProt P11586)
[41] = target: Proteasome subunit alpha type-3 (Homo sapiens) (UniProt P25788)
[42] = target: DNA replication licensing factor MCM3 (Homo sapiens) (UniProt P25205)
[43] = target: Ras-related protein Rab-6A (Homo sapiens) (UniProt P20340)
Further: assay method not described here.

MAP/microtubule affinity-regulating kinase 4 (Homo sapiens), sequence (Q96L34 whole entry): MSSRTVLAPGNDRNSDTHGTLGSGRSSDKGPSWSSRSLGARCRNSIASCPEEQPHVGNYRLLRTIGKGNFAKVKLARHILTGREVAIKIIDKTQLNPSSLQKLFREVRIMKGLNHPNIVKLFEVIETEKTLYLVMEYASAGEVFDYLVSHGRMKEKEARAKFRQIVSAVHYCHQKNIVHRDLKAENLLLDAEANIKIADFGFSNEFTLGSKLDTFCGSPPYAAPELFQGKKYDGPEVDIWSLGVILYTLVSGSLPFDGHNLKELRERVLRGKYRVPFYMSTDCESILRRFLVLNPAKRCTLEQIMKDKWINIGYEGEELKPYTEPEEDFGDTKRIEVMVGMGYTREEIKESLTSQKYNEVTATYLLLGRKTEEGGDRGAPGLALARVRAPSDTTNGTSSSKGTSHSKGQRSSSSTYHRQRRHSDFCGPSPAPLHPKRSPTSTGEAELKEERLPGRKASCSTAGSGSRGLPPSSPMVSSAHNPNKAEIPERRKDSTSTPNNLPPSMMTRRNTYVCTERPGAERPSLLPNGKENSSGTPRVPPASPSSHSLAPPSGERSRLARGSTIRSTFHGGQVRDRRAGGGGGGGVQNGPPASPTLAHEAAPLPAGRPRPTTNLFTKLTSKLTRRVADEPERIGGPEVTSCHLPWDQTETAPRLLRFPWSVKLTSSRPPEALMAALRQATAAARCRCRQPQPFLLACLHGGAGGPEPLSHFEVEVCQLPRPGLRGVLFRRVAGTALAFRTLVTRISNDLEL

In the case of `Cc1ccc(C(=O)Nc2cccc(C(F)(F)F)c2)cc1Nc1nc(-c2cccnc2)nc2c1cnn2C`, the ED50 [1] was 98.6 nM, the ED50 [2] was 132 nM and the ED50 [3] was 19.8 nM. It also gave an ED50 (Radixin (Homo sapiens)) of 2 nM, an ED50 [4] of 4880 nM and an ED50 (Homo sapiens [5]) of 3870 nM. It also gave an ED50 [6] of 20 nM, an ED50 [7] of 112 nM and an ED50 [8] of 7690 nM. It also gave an ED50 [9] of 10400 nM, an ED50 [10] of 21200 nM and an ED50 [11] of 23200 nM. The ED50 [12] was 990 nM, the ED50 [13] was 12.2 nM and the ED50 [14] was 18.8 nM. It also gave an ED50 [15] of 761 nM, an ED50 [16] of 3.59 nM and an ED50 [17] of 2930 nM. For the same compound, the ED50 [18] was 6.04 nM, the ED50 [19] was 1990 nM and the ED50 (Tektin-1 (Homo sapiens)) was 44000 nM. It also gave an ED50 [20] of 2.15 nM, an ED50 [21] of 270 nM and an ED50 [22] of 169 nM. For the same compound, the ED50 [23] was 5720 nM, the ED50 [24] was 211000 nM and the ED50 [25] was 41.5 nM. The ED50 [26] was 2870 nM, the ED50 (Cullin-4B (Homo sapiens)) was 1760 nM and the ED50 [27] was 3450 nM. For the same compound, the ED50 (Homo sapiens [28]) was 192 nM, the ED50 [29] was 579 nM and the ED50 [30] was 571 nM. For the same compound, the ED50 [31] was 675 nM, the ED50 [32] was 23700 nM and the ED50 [33] was 89900 nM. The ED50 [34] was 15.5 nM.
Work on `Cc1ccc(C(=O)Nc2cccc(C(F)(F)F)c2)cc1Nc1nc(-c2cccnc2)nc2nn(C)cc12` yielded an ED50 (Erlin-2 (Homo sapiens)) of 3060 nM, an ED50 [35] of 52.4 nM and an ED50 [36] of 50.4 nM. It also gave an ED50 [37] of 26800 nM, an ED50 [38] of 1490 nM and an ED50 [39] of 506 nM. It also gave an ED50 [40] of 87.1 nM, an ED50 [41] of 8.4 nM and an ED50 [42] of 28.9 nM. The ED50 [43] was 535 nM.
